Reference: US9351998B2, “Methods of nourishing animals” (MariCal, Inc., priority 2008, dated 2016)
“Also recorded” adds a separate entry of the source.

Columns and labels:
chick CaSR = experiment: Plasma calcium in chicks after single oral gavage of CaSR modulator; assay type: in vivo; details: various doses, 2 week old and newly hatched chicks, various intervals of time
Excerpt: Male chicks (either newly hatched or 2 weeks of age) were gavaged with a single application of various doses of the specific CaSR modulator (MC 0100), a specific pharmacological modulator of CaSRs, to increase the apparent sensitivity of the CaSR to agonists such as calcium. An increase in the apparent sensitivity of the chick CaSR to extracellular calcium is expected to result in the “resetting” of the normal range of calcium within the chick to a lower level of plasma calcium since the functioning CaSR are all shifted leftward (more sensitive) on the dose response curve of CaSR for calcium.

mammalian CaSR = molecular target: T1, mammalian CaSR (Homo sapiens, UniProt P41180); experiment: FURA2 ratio imaging fluorimetry of HEK cells stably expressing mammalian CaSR; assay type: cell-based
T1 construct: expressed in transfected cells; host or cells: HEK cells stably expressing the mammalian CaSR
T1 sequence (P41180 20-1078): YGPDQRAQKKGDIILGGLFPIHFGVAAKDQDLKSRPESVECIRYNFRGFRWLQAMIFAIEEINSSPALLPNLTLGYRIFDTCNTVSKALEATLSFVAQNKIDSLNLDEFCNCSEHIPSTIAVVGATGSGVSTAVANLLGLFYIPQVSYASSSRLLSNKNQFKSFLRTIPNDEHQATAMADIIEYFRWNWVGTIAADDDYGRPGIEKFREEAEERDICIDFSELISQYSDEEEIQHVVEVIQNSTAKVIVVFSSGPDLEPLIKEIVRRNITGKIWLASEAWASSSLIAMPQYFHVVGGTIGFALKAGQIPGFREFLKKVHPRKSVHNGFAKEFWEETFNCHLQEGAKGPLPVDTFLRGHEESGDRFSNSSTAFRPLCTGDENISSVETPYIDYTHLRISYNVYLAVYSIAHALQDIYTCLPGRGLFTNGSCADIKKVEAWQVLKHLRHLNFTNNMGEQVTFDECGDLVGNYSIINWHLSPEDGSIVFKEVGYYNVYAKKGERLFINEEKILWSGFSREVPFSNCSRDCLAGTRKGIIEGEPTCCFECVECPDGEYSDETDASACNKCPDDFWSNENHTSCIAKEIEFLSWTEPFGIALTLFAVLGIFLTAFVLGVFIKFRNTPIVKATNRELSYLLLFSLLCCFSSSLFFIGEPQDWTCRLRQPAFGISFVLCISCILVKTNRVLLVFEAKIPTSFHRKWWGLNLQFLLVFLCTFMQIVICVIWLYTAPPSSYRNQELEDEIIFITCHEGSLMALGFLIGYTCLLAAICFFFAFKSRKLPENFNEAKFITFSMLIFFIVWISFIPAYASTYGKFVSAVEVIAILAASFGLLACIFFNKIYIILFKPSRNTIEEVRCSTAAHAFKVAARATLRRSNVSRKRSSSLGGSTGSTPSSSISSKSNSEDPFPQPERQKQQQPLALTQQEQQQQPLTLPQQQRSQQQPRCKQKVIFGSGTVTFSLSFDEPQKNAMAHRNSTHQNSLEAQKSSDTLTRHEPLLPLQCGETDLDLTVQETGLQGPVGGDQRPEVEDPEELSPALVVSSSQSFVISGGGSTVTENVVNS
Excerpt: All methods and equipment utilized to perform experiments on HEK cells have been reported previously (Gama, L. and Breitwieser, G. E. 1998. A carboxyl-terminal domain controls the cooperativity for extracellular Ca2+ activation of the human calcium sensing receptor. A study with receptor-green fluorescent protein fusions. J. Biol. Chem. 273, 29712-29718; Bai, M., Quinn, S., Trivedi, S., Kifor, 0., Pearce, S. H., Pollak, M. R., Krapcho, K., Hebert, S. C. and Brown, E. M. 1996. Expression and characterization of inactivating and activating mutations in the human Ca2+o-sensing receptor. J. Biol. Chem. 271, 19537-19544). Untransfected HEK cells or, alternatively, cells transfected and expressing CaSR protein were cultured in Dulbecco's Modified Eagle Medium containing 10% fetal bovine serum and 1% penicillin-streptomycin in 75 cm^2 flasks until they reached confluence. Media was removed from the flasks and cells were loaded by exposure to Loading Buffer (125 mM NaCl, 4 mM KCl, 1.0 mMCaCl2, 1.0 mM MgCl2, 1 mM NaH2PO4, 20 mM HEPES, 1 gm/liter bovine serum albumin, and 1 gm/l glucose, pH ˜7.4, osmolality ˜285) containing 4.1 micromolar FURA2-AM (Molecular Probes Inc. Eugene, Oreg.) for 2 hr. Cells were then scraped from the surface of the flask using a standard cell scraper (Costar 3010, Corning Inc.). Cells were then pelleted from the suspension by low speed centrifugation to remove loading buffer and rinsed twice to remove extracellular FURA2 dye by two sequential suspensions and pelleting steps using low speed centrifugation. Immediately prior to the start of the experiment, cells were resuspended in various experimental buffers for analyses as described below. The Standard Experimental Buffer used for many studies was composed of: 125 mM NaCl, 4 mM KCl, 0.5 mMCaCl2, 0.5 mM MgCl2, 20 mM HEPES, 1 g/l glucose, pH ˜7.4, osmolality ˜285. All other buffers were variations on this basic composition where specific components within the Standard Experimental Buffer were varied while the remaining components were held constant.
Cell suspensions consisting of a total volume of 3 ml were analyzed in a PTI fluorimeter (PTI Model 814 Photomultiplier Detection System equipped with SC-500 Shutter Controller and PTI Driver and Analysis Software) within approximately 20 min after exposure to experimental buffers. Data was acquired using standard ratio image analysis as described previously using a data acquisition rate of 1.3 sec. for 500 or 1000 second intervals.
In selected experiments, the detergent Triton X-100 was added in order to lyse the cells and quantify differences in FURA2 ratio fluorescence. Triton X-100 was added to the cells to obtain a maximal fluorescence signal from the FURA2 for purposes of quantification.
Experiments on HEK cells were performed generally as described in Example 6 herein. […] Subsequent addition of Ca2+ to a final concentration of 5 mM produced an additional response (see FIG. 26A). No response was observed upon addition of 0.025% Mintrex Zn after the addition of experimental buffer (EB) (see FIG. 26B). […] In addition, the magnitude of the CaSR response to 5 mM Ca2+ was diminished by previous addition of Mintrex Zn.
For mammalian CaSR experiments, two individual aliquots from a single pool of HEK cells that stably express the recombinant mammalian CaSR protein were used for ratio imaging fluorimetry assays of CaSR activation generally as described in Example 6 herein. Addition of Ca++ to a final concentration of 2.5 mM produced a CaSR response that was also followed by responses after subsequent additions of 0.025% Zn proteinate followed by Ca++ to a final concentration of 7.5 mM (FIG. 29B). […] There was also a response to a subsequent dose of Ca++ to a final concentration of 7.5 mM (FIG. 29B). In both tracings, the detergent Triton X-100 was added as a final step to lyse the cells.
Experiments on HEK cells were performed generally as described in Example 6 herein. […]

COc1cccc([C@@H](C)NCCCc2ccccc2)c1 [MC0100]
plasma calcium (chick CaSR): dose dependent decrease | effect of prior modulator on CaSR response to 0.025% Zn Proteinate (mammalian CaSR; 1 micromolar MC 0100): increased the response | effect of prior modulator on CaSR response to 0.025% Mintrex Zn (mammalian CaSR; 1 micromolar MC0100 added before Mintrex Zn): responded to 0.025% Mintrex Zn only after the addition of 1 micromolar MC0100 | CaSR response to the modulator itself (mammalian CaSR; MC0100 at final 1 micromolar): very small CaSR response; also recorded: did not itself produce a large response | CaSR response to stepwise additions (mammalian CaSR; after addition of 2.5 mM Ca++ (FIG. 37)): increased responses | effect on Mintrex Zn-induced reduction of CaSR response to 5 mM Ca2+ (mammalian CaSR; previous addition of 1 micromolar MC0100): partially restored
